Measurements reported in patent US6372787B1 (dated 2002).

melting point: 118 to 119 °C
SMILES: CON=C(C(C)=NN=Cc1ccccc1C(=NOC)C(=O)OC)c1ccc(Cl)cc1
